Legend:
[1] = test system: interferon-inducible protein 56 (p56); experiment: p56 mRNA expression in DIM-treated MCF-7 cells (cDNA microarray, Northern blot, quantitative RT-PCR); assay type: cell-based, human
Experimental: Immune response activating effects of the DIM analogs are examined with cell-based assays for cytokine and cytokine receptor expression. […] We also used a sensitive sandwich ELISA assay to examine levels of IFNγ in medium from confluent cultures of MCF-7 cells that were treated for up to 3 days. DIM derivatives confirmed to have immune response activating activity in our reporter and ELISA assays are subsequently screened in a whole animal cytokine production and Y. enterocolitica infection studies, as described below in Examples VIII and IX.
An initial cDNA gene expression microarray screen of human breast cancer MCF-7 cells treated with DIM, followed by confirmation of results using Northern blots and quantitative RT-PCR, established the transcriptional activation of IFNγ, IFNγ receptor (IFNGR1), oligoadenylate-synthase (OAS) family member protein 69 (p69-OAS), and interferon-inducible protein 56 (p56), a protein closely related to OAS. […] Maximum induction for IFNγ, IFNGR1, p69-OAS and p56 were 4.6, 3.8, 3.2 and 4.0 fold, respectively.

IL-12 = experiment: Serum IL-12 by ELISA in mice after DIM; assay type: in vivo; details: 30 μg/kg DIM orally
Experimental: (§1) We firstly investigated the effect of unsubstituted DIM on the production of IL-6, G-CSF, IL-12, TNF-α and IFNγ. A groups of 3 mice was given 30 μg/kg of unsubstituted DIM orally and then sacrificed at 1, 3, 5, 8, and 24 h after drug challenge. Serum was collected, pooled, and assayed for IL-6, G-CSF, IL-12 and TNF-α by ELISA. […] DIM produced an increase in circulating levels of G-CSF and TNF-α with the 3 h time point being maximal. […] DIM also stimulated IL-12 and kinetics were slightly different since the increased levels were sustained for at least 24 h.

G-CSF = experiment: Serum G-CSF by ELISA in mice after DIM; assay type: in vivo; details: 30 μg/kg DIM orally
Experimental: as §1

MHC-I complex = experiment: Flow cytometry of cell surface MHC-I expression (FITC-conjugated HLA-ABC antibody); assay type: cell-based, human; details: no IFNγ
Experimental: Induced expression of the MHC-I complex is a well-established and important down-stream target of IFNγ-mediated signal transduction. To examine further the possible synergistic effects of DIM on a significant metabolic product of IFNγ signaling, we tested the effects of co-treatment with DIM on IFNγ induced expression of MHC-I complex in MCF-7 cells.
Flow cytometry analysis of cell surface MHC-I expression was conducted using FITC-conjugated HLA-ABC antibody. In an initial control experiment, cultured MCF-7 cells were pre-treated with 30 μM DIM for 48 hours and then with or without 10 ng/mL IFNγ for another 16 hours. […] In a subsequent experiment in which cells were treated with a range of IFNγ concentrations and analyzed with the anti-MHC-I antibody, a strong signal indicative of IFNγ-induced MHC-I expression was detectable at 0.1 ng/mL and appeared to plateau at 10 ng/mL. In cells treated with vehicle control only, MHC-I expression was not detected in greater than 99% of cells.
Exposure to DIM of cells treated with 10 ng/mL of IFNγ, about 95% of which expressed MHC-I, produced a strong time dependent increase in MFV from 76.04 to 131.41. […] As expected, addition of an IFNγ blocking antibody into the medium before the treatments abrogated the inducing effects of co-treatments of IFNγ and DIM on MHC-I expression, confirming the requirement of the cytokine for the observed effects.

c1ccc2c(Cc3c[nH]c4ccccc34)c[nH]c2c1 [DIM, 3,3′-Diindolylmethane]
Maximum induction of p56 mRNA ([1]; MCF-7 cells treated with DIM): 4.0 fold | Treatment time at which p56 expression was fully induced ([1]; MCF-7 cells treated with DIM): 6 h | p56 mRNA level following 48 h of DIM treatment ([1]; MCF-7 cells, 48 h): returned to near control levels | Time for which increased IL-12 levels were sustained (IL-12): at least 24 h | Time point of maximal circulating G-CSF (G-CSF): 3 h | Expression of the MHC-I complex, DIM treatment alone (MHC-I complex): no significant effect

From patent publication US20060100264A1, “3,3'-Diindolylmethane immune activating compositions” (priority 2004, published 2006)
